Here are results for six compounds from ChEMBL document CHEMBL5113375, “Development of Mcl-1 inhibitors for cancer therapy” (Eur J Med Chem, 2021).

For orientation: Ki means a measure of affinity in units of concentration, obtained from inhibition or displacement. What is called IC50 is the midpoint of a concentration-inhibition curve.

Assay [1] has as its target T1, Induced myeloid leukemia cell differentiation protein Mcl-1/BH3-interacting domain death agonist (Homo sapiens, UniProt Q07820). The assay is described as follows: Binding affinity to Mcl-1/Bid (unknown origin) incubated for 3 hrs by fluorescence polarization-based binding assay. It counts as protein assay. (In general: Polarisation of emitted light reports the rotation of a fluorescent probe.)

The target of another assay is T2, BCL2A1/BID (Homo sapiens, UniProt Q16548).
T2 sequence (Q16548 whole entry): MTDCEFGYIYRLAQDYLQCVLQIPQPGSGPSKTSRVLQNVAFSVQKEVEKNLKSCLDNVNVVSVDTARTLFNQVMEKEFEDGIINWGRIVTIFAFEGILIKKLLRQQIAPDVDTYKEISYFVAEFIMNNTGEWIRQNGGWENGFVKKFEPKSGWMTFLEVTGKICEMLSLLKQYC
T2 sequence (P55957 whole entry): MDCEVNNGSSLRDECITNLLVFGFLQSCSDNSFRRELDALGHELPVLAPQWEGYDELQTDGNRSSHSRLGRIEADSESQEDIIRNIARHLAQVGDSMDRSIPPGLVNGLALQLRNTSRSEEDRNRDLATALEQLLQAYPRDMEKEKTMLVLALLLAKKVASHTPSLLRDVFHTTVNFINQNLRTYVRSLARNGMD
Nature of the assay: Binding affinity to Bfl-1/Bid (unknown origin) incubated for 3 hrs by fluorescence polarization-based binding assay. It counts as protein assay.

A short description of assay [2]: Inhibition of Bak/Bcl-xL (unknown origin) protein protein interaction by fluorescence polarization assay. Further details: species or system Homo sapiens.
Another assay deals with MCL1-BAK1 complex (Homo sapiens, UniProt Q07820). Nature of the assay: Inhibition of Bak/Mcl-1 (unknown origin) protein protein interaction by fluorescence polarization assay. It counts as protein-complex assay.
Assay [3] is described as follows: Binding affinity to Bak/Bcl-xL (unknown origin) protein protein interaction by fluorescence polarization assay. Set-up: species or system Homo sapiens.
Assay [4] concerns the target T3, Bcl-xL/BAK (Homo sapiens, UniProt Q07817). The assay is described as follows: Inhibition of Bcl-xL/Bak (unknown origin) by fluorescence polarization assay. Type of assay: protein assay.
For assay [5], the target named is Induced myeloid leukemia cell differentiation protein Mcl-1/Bcl-2-like protein 11 (Homo sapiens, UniProt Q07820). The assay is described as follows: Inhibition of Mcl-1/Bim (unknown origin) by fluorescence polarisation assay. It counts as protein assay.
Assay [6] concerns the target Bcl-xL/Bcl-2-like protein 11 (Homo sapiens, UniProt Q07817). Nature of the assay: Binding affinity to GST-tagged Bcl-xL/5-FAM-tagged Bim (unknown origin) assessed as inhibition constant by fluorescence polarization assay. It counts as protein assay.
The next assay has as its target BCL2/BID (Homo sapiens, UniProt P10415). Nature of the assay: Binding affinity to human Bcl-2 (29 to 44 residues)/5-FAM-tagged Bid (unknown origin) assessed as inhibition constant by fluorescence polarization assay. Type of assay: protein assay.
Assay [7] addresses T1, Induced myeloid leukemia cell differentiation protein Mcl-1/BH3-interacting domain death agonist. Nature of the assay: Binding affinity to human N-terminal 8xHis tagged Mcl-1/5-FAM-tagged Bid (unknown origin) assessed as inhibition constant by fluorescence polarization assay. Type of assay: protein assay.
The target is the same in assay [8]. The assay is described as follows: Inhibition of Mcl-1/FITC-labelled Bid (unknown origin) protein protein interaction incubated for 20 to 60 mins by fluorescence polarisation binding assay.
Assay [9] has as its target T3, Bcl-xL/BAK. Nature of the assay: Binding affinity to human Bcl-xL/Bak (unkown origin) incubated for 1 hr by fluorescence polarization assay. Type of assay: protein assay.
The nature of assay [10]: Binding affinity to mouse Mcl-1/Bak (unkown origin) incubated for 1 hr by fluorescence polarization assay.

T1 sequence (Q07820 whole entry, one chain of several, the tested form may be a part): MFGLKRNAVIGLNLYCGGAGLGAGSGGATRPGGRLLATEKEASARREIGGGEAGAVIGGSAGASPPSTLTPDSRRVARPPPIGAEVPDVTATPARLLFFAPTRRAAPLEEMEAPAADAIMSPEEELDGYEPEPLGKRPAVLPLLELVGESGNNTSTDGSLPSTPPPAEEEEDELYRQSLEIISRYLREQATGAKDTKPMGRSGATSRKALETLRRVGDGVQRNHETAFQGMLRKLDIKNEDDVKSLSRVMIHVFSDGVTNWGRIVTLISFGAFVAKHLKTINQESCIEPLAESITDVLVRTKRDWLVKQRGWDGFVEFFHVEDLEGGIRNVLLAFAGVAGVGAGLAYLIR
T3 sequence (Q07817 whole entry): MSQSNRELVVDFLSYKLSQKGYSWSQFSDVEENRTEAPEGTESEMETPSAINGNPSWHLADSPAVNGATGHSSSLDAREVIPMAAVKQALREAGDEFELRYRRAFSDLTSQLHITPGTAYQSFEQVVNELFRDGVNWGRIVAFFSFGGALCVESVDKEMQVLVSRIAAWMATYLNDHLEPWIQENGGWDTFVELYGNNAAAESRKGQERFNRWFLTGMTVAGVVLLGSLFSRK
T3 sequence (Q16611 whole entry, further chain): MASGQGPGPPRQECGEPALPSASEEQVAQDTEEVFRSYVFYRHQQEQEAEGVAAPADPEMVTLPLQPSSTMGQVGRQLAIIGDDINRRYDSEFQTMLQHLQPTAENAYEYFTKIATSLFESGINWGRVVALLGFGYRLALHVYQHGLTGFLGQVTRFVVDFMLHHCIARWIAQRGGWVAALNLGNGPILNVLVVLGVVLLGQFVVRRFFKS
Chain of Bcl-xL/Bcl-2-like protein 11 (Q07817 whole entry, the tested form may be a part): as the sequence (Q07817 whole entry) above
Chain of Bcl-xL/Bcl-2-like protein 11 (O43521 whole entry, further chain, the tested form may be a part): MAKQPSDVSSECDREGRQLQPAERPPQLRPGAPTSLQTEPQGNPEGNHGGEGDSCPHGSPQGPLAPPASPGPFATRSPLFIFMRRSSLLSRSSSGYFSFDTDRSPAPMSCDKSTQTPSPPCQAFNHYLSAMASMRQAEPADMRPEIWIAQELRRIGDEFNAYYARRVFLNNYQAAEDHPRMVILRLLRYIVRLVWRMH
Chain of Induced myeloid leukemia cell differentiation protein Mcl-1/Bcl-2-like protein 11 (Q07820 whole entry): as the sequence (Q07820 whole entry, one chain of several, the tested form may be a part) above
Chain of Induced myeloid leukemia cell differentiation protein Mcl-1/Bcl-2-like protein 11 (O43521 whole entry, further chain): as the sequence (O43521 whole entry, further chain, the tested form may be a part) above
Chain of MCL1-BAK1 complex (Q07820 whole entry): as the sequence (Q07820 whole entry, one chain of several, the tested form may be a part) above
Chain of MCL1-BAK1 complex (Q16611 whole entry, further chain): as the sequence (Q16611 whole entry, further chain) above
Chain of BCL2/BID (P10415 whole entry, one chain of several, the tested form may be a part): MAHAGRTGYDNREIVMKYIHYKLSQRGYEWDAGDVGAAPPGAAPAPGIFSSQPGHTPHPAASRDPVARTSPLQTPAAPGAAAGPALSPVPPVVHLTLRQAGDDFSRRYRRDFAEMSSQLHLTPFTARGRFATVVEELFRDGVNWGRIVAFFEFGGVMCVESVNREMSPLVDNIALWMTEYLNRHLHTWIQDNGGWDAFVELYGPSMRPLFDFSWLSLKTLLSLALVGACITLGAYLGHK

In the case of `O=C(CSc1nnc(-c2ccco2)c(-c2ccco2)n1)Nc1ccccc1`, the Ki was determined as 3200 nM in assay [1] and 4900 nM at BCL2A1/BID.

Turning to `CC(C)Oc1cc(C(=O)Nc2ccc(C(=O)Nc3ccc(C(=O)O)cc3OC(C)C)nc2OC(C)C)ccc1N`, the IC50 amounted to 394 nM in [2] and 10200 nM at MCL1-BAK1 complex. For the same compound, the Ki in assay [3] is 179 nM.

Take `CC(C)Cc1cc(-c2ccc(-c3ccc(OCC(=O)O)cc3CC(C)C)cc2Cc2ccccc2)ccc1OCCC(=O)O`: the IC50 against Bcl-xL/BAK [4] is 1500 nM; in assay [5], 4900 nM.

Turning to `O=C(Nc1ccccc1)C1=CN=c2s/c(=C\c3cn(Cc4ccccc4F)c4ccccc34)c(=O)n2C1c1ccc(F)cc1` (stereo not drawn), the Ki stood at 1640 nM in [6], 2670 nM at BCL2/BID and 1050 nM in [7].

As for `Cc1ccc(S(=O)(=O)/N=C2\C=C(Sc3nc[nH]n3)C(=O)c3ccccc32)cc1`, the IC50 in [8] amounted to 450 nM.

As to `CC1=C[C@@H](/C=C(\C)c2ccc(C(=O)O)cc2)[C@]2(C(=O)O)C=C[C@@H](CCOC(=O)c3ccc(Oc4ccccc4)cc3)C[C@@H]2C1`, the Ki on Bcl-xL/BAK [9] was determined as 700 nM; in assay [10], 500 nM.
